This is an account of results in patent publication US7727933B2, “2-ethyl-4,6-dimethyl-phenyl-substituted spirocyclic tetramic acid derivatives” (Bayer CropScience AG, priority 2003, dated 2010).

Assay type in all cases: in vivo
For assay [1], the system named is Avena sativa. The assay is described as follows: Herbicidal post-emergence action (Example A). As to conditions: 320 g of a.i./ha, rated visually after about 3 weeks, 100% = plants have died. As for the experimental part:
(§1) Seeds of monocotyledonous and dicotyledonous weed and crop plants are placed into sandy loam in wood fibre pots, covered with soil and cultivated in a greenhouse under good growth conditions. 2-3 weeks after sowing, the test plants are treated at the one-leaf stage. The test compounds, formulated as wettable powders (WP), are, in various dosages with a water application rate of 600 l/ha (converted), with 0.2% of wetting agent added, sprayed onto the green parts of the plants. After the test plants were kept in the greenhouse under optimum growth conditions for about 3 weeks, the effect of the preparations is rated visually in comparison to untreated controls (herbicidal effect in percent (%): 100% effect=the plants have died, 0% effect=like control plants).

For assay [2], the system named is Lolium. The assay can be described thus: Herbicidal post-emergence action (Example A). Conditions: 320 g of a.i./ha, rated visually after about 3 weeks, 100% = plants have died. The procedure:
as §1

Assay [3] deals with Setaria. The assay can be described thus: Herbicidal post-emergence action (Example A). Conditions: 320 g of a.i./ha, rated visually after about 3 weeks, 100% = plants have died. As for the experimental part: as §1
Assay [4] deals with Summer barley. The assay is described as follows: Herbicidal post-emergence action with use of safeners (Example B), crop plant compatibility. As to conditions: without safener, rated 3-4 weeks after treatment. The procedure: Seeds of monocotyledonous and dicotyledonous weed and crop plants are placed into sandy loam in wood fibre pots or in plastic pots, covered with soil and cultivated in a greenhouse, during the vegetation period also outdoors outside of the greenhouse, under good growth conditions. 2-3 weeks after sowing, the test plants are treated at the one- to three-leaf stage. The test compounds, formulated as wettable powders (WP) or emulsifiable concentrates (EC) are, in various dosages with a water application rate of 300 l/ha (converted), with wetting agent (0.2 to 0.3%) added, sprayed onto the plants and the surface of the soil. 3-4 weeks after the treatment of the test plants, the effect of the preparations is rated visually in comparison to untreated controls (herbicidal effect in percent (%): 100% effect=the plants have died, 0% effect=like control plants). […]

In the case of `CCc1cc(C)cc(C)c1C1=C(OC(=O)COC)C2(CCC(OC)CC2)NC1=O` (centres unmarked) [Ex. I-b-1], the “herbicidal effect in percent, Avena sativa” value in assay [1] is 100%. For the same molecule, the “herbicidal effect in percent, Lolium” value in assay [2] turned out to be 100%. The “herbicidal effect in percent, Setaria” value in assay [3] was determined as 90%. The “Summer barley observed (%)” value in assay [4] (12.5 g of a.i./ha) is 65%; in assay [4] (25 g of a.i./ha), 93%.
